{"source": "ChEMBL document CHEMBL3045366", "about": "“Pyridazin-3(2H)-ones: the versatile pharmacophore of medicinal significance” (Med Chem Res, 2013)", "key": {"[1]": {"assay": "Inhibition of acyl-coA cholesterol O-acyltransferase (unknown origin)", "set-up": "species or system Homo sapiens"}, "[2]": {"tested_on": "Thoracic aorta", "assay": "Inodilatory activity in Wistar Rattus norvegicus (rat) thoracic aorta assessed as inhibition of phenylephrine-induced contraction", "type": "functional, tissue-based"}, "[3]": {"tested_on": "Mus musculus", "assay": "Anti-inflammatory activity in Mus musculus (mouse) assessed as inhibition of arachidonic acid-induced ear edema at 30 umol/kg, po relative to control", "type": "functional"}, "[4]": {"assay": "Half life in Rattus norvegicus (rat)", "type": "ADME, organism-based", "conditions": "in vivo"}}}
{"smiles": "CCCCCCn1nc(-c2ccccc2)c(-c2ccccc2)cc1=O", "values": [{"measurement": "IC50", "setting": "[1]", "value": 57, "unit": "µM"}]}
{"smiles": "CS(=O)(=O)Nc1ccc(C2=NN(c3ccccc3)C(=O)CC2)cc1", "values": [{"measurement": "IC50", "setting": "[2]", "value": 0.08, "unit": "µM"}]}
{"smiles": "CCOc1ccc(C2=NN(CCCCOc3ccc(C4=NNC(=O)CC4C)cc3)C(=O)C3CC=CCC23)cc1OCC", "note": "(stereo not given)", "values": [{"measurement": "inhibition in vivo at 30 µmol/kg", "setting": "[3]", "value": 46, "unit": "%"}]}
{"smiles": "COc1ccc(C2=NN(CCCCOc3ccc(C4=NNC(=O)CC4C)cc3)C(=O)C3CC=CCC23)cc1Cl", "note": "(stereo not given)", "values": [{"measurement": "inhibition in vivo at 30 µmol/kg", "setting": "[3]", "value": 46, "unit": "%"}]}
{"smiles": "O=C(O)COc1cccc2c1CC[C@H](Cn1nc(C(c3ccccc3)c3ccccc3)ccc1=O)C2", "values": [{"measurement": "half-life", "setting": "[4]", "value": 4.3, "unit": "h"}]}
